Drawing on patent US20240383904A1, “HETEROCYCLIC COMPOUNDS” (Hoffmann-La Roche Inc., priority 2021, published 2024), this text covers IC50 for 11 compounds.

For the assay, the target named is T1, MAGL (Homo sapiens, UniProt Q99685).
T1 sequence (Q99685 1-303): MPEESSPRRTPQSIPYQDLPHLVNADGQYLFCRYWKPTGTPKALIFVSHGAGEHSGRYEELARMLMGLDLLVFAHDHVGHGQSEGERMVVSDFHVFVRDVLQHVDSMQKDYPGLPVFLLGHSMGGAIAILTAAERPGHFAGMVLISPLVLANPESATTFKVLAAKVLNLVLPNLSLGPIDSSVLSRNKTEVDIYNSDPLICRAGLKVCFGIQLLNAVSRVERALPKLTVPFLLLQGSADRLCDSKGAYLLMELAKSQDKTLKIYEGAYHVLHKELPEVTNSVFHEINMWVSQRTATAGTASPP
As to the kind of experiment: 2-AG assay: MAGL inhibitory activity by hydrolysis of 2-arachidonoylglycerol to arachidonic acid, followed by mass spectrometry. The format is biochemical. The settings on record: 15 min preincubation, 30 min reaction at RT, 8 μM 2-arachidonoylglycerol.
Take `O=C1COCC2(CN(C(=O)N3CC4(CC(Cc5cnc(C(F)(F)F)nc5)C4)C3)C2)N1` [Example 232, 2-[6-[[2-(trifluoromethyl)pyrimi-din-5-yl]methyl]-2-azaspiro[3.3]heptane-2-carbonyl]-8-oxa-2,5-diazaspiro[3.5]nonan-6-one]: 230 nM corresponded to half-maximal inhibition (IC50). Compound `O=C1COCC2(CN(C(=O)N3CC4(CCN(Cc5ccc(S(=O)(=O)C(F)(F)F)cc5)C4)C3)C2)N1` [Example 233, 2-[7-[[4-(trifluoromethylsulfonyl)phenyl]methyl]-2,7-diazaspiro[3.4]octane-2-carbonyl]-8-oxa-2,5-diazaspiro[3.5]nonan-6-one] came in with an IC50 of 265 nM.

As to `O=C1COCC2(CN(C(=O)N3CC4(CC[C@@H](Cc5ccc(S(=O)(=O)C(F)(F)F)cc5)C4)C3)C2)N1` [Example 234, 2-[(6S)-6-[[4-(trifluoromethylsulfonyl)phenyl]methyl]-2-azaspiro[3.4]octane-2-carbonyl]-8-oxa-2,5-diazaspiro[3.5]nonan-6-one], inhibition was half-maximal at 8.49 nM (IC50).

Turning to `O=C1COCC2(CN(C(=O)N3CC4(CC[C@H](Cc5ccc(S(=O)(=O)C(F)(F)F)cc5)C4)C3)C2)N1` [Example 235, 2-[(6R)-6-[[4-(trifluoromethylsulfonyl)phenyl]methyl]-2-azaspiro[3.4]octane-2-carbonyl]-8-oxa-2,5-diazaspiro[3.5]nonan-6-one], the IC50 amounted to 7.35 nM. For `O=C1COCC2(CN(C(=O)N3CC4(CC[C@@H](Cc5cccc(S(=O)(=O)C(F)(F)F)c5)C4)C3)C2)N1` [Example 236, 2-[(6S)-6-[[3-(trifluoromethylsulfonyl)phenyl]methyl]-2-azaspiro[3.4]octane-2-carobnyl]-8-oxa-2,5-diazaspiro[3.5]nonan-6-one], the IC50 is 2.16 nM. The same measure for `O=C1COCC2(CN(C(=O)N3CC4(CC[C@H](Cc5cccc(S(=O)(=O)C(F)(F)F)c5)C4)C3)C2)N1` [Example 237, 2-[(6R)-6-[[3-(trifluoromethylsulfonyl)phenyl]methyl]-2-azaspiro[3.4]octane-2-carbonyl]-8-oxa-2,5-diazaspiro[3.5]nonan-6-one]: 3.15 nM; for `CS(=O)(=O)c1cc(CC2CC3(C2)CN(C(=O)N2CC4(COCC(=O)N4)C2)C3)cc(C(F)(F)F)c1` [Example 238, 2-[6-[[3-methylsulfonyl-5-(trifluoromethyl)phenyl]methyl]-2-azaspiro[3.3]heptane-2-carbonyl]-8-oxa-2,5-diazaspiro[3.5]nonan-6-one]: 16.5 nM. For the compound `O=C1COCC2(CN(C(=O)N3CC4(CC(Cn5ccc(C(F)(F)F)n5)C4)C3)C2)N1` [Example 239, 2-[6-[[3-(trifluoromethyl)pyrazol-1-yl]methyl]-2-azaspiro[3.3]heptane-2-carbonyl]-8-oxa-2,5-diazaspiro[3.5]nonan-6-one], half-maximal inhibition (IC50) required 52.8 nM. Consider `O=C1COCC2(CN(C(=O)N3CC4(CCN(Cc5ccc(C(F)(F)F)nc5)C4)C3)C2)N1` [Example 240, 2-[7-[[6-(trifluoromethyl)-3-pyridyl]methyl]-2,7-diazaspiro[3.4]octane-2-carbonyl]-8-oxa-2,5-diazaspiro[3.5]nonan-6-one], for which the half-maximal inhibitory concentration (IC50) worked out at 1240 nM. The same measure for `O=C1COCC2(CN(C(=O)N3CC4(CCN(Cc5ccc(C(F)(F)F)cn5)C4)C3)C2)N1` [Example 241, 2-[7-[[5-(trifluoromethyl)-2-pyridyl]methyl]-2,7-diazaspiro[3.4]octane-2-carbonyl]-8-oxa-2,5-diazaspiro[3.5]nonan-6-one]: 928 nM; for `N#Cc1cc(C(F)(F)F)ccc1CC1CC2(C1)CN(C(=O)N1CC3(COC(=O)N3)C1)C2` [Example 242, 2-[[2-(6-oxo-7-oxa-2,5-diazaspiro[3.4]octane-2-carbonyl)-2-azaspiro[3.3]heptan-6-y]methyl]-5-(trifluoroemthyl)benzoni-trile]: 0.06 nM.

In general, IC50 refers to the point on the concentration scale where inhibition reaches its midpoint. A high value points to weaker potency in that assay.
